PubChem BioAssay (NCI)
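A five-concentration, 48-hour dose response in 96-well plates underlies each endpoint, interpolated linearly between surrounding concentrations. TGI is the concentration that stops growth completely.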

These compounds were tested on RXF 393 renal (assay: NCI anticancer screen, dose series, 48 h).

Structure (SMILES)	TGI [µM]
CCCCCCCCCCCCOP(=O)(O)OP(=O)(O)OCC1OC(n2cc(C)c(=O)[nH]c2=O)CC1O (stereo unspecified)	> 100
O=C1c2cc([N+](=O)[O-])sc2C(=O)c2c([N+](=O)[O-])csc21	1.76
C[C@H](CCC(=O)NCC(=O)O)[C@H]1CC[C@H]2[C@@H]3[C@H](O)C[C@@H]4C[C@H](O)CC[C@]4(C)[C@H]3CC[C@]12C	> 100
CCOc1cc2c(cc1O)C(N)C[C@@H]1[C@@H]2CC[C@]2(C)[C@@H](O)CC[C@@H]12 (stereo partly specified)	> 100
CC(C)C(NC(=O)C(Cc1ccccc1)NC(=O)[C@H]1CCC[C@H]1NC(=O)C(Cc1ccc(OC(C)(C)C)cc1)NC(=O)OC(C)(C)C)C(N)=O (stereo partly specified)	> 100
Cc1ccc(NC(=O)CC(=O)n2nc(C)c(N=Nc3cccc(C)c3)c2C)cc1	> 100
N#C/C(=C\c1ccc2[nH]ccc2c1)C(=O)c1ccc(O)c(O)c1	> 100
O=[N+]([O-])/C(C(Cl)=C(Cl)Cl)=C(/Nc1ccccc1)Sc1ccccc1	40.3
Cc1ccc2c(c1C)C(=O)/C(=C/c1cccc(C)c1C(=O)O)C2	> 100
O=C1N(c2ccccc2)C(=S)/C(=C/c2ccc(Cl)cc2)N1c1ccc(Cl)cc1	> 100
O=C1C=C(N2CCN(CCOCCO)CC2)C(=O)c2c(O)ccc(O)c21	28.8
CC/C(N)=N\NC(=O)OC(C)(C)C	> 100
CC(=O)NC1C(OCc2ccccc2)OC(CO)C(O)C1OCC(=O)N[C@@H](C)C(=O)N[C@H](CCC(=O)NCCCNc1ccc([N+](=O)[O-])c2[nH]c3ccccc3c(=O)c12)C(N)=O (stereo partly specified)	> 100
CN(C)CCCNC(=O)c1cn2c(ccc3sc4ccccc4c(=O)c32)n1	21.8
O=P(O)(O)CN1CCNCCN(CP(=O)(O)O)CC1	> 100
c1cc2c(cc1C1=NCCN1)c1cc(C3=NCCN3)ccc1n2CC1CCCCC1	> 100
C=C1CC2[C@H](C)C(=O)CCC2(C)C2=C1C1CCC(C(C)CCC(=C)C(C)C(=O)O)C1(C)CC2=O (stereo partly specified)	86.4
CC(C)NC(=O)OCc1c(COC(=O)NC(C)C)c(-c2cc[n+](COC(=O)C3CCCCC3)cc2)n2c1CCC2	> 100
O=[N+]([O-])C(C=C(n1nnc2ccccc21)n1nnc2ccccc21)=C(n1nnc2ccccc21)n1nnc2ccccc21	> 100

These compounds were tested on SK-MEL-2 melanoma (assay: NCI anticancer screen, dose series, 48 h).

Structure (SMILES)	TGI [µM]
CCNC(=S)N/N=C(\C)c1cccc(C)n1	> 100
CN1CCN([C@H]2C[C@H]3[C@@H]4CC=C5C[C@@H](O)CC[C@]5(C)[C@H]4CC[C@]3(C)[C@H]2O)CC1	> 100
CC1C2(C)OCC(C#N)(C(=N)O2)C1(C#N)C#N (stereo unspecified)	33.5
C=CC[C@H](N=C(SC)SC)C(=O)N1C(=O)N(C)[C@@H](C)[C@H]1c1ccccc1	91.2
CC(=O)c1sc2[n+](c1C)C(=O)/C(=C\c1ccccc1Cl)S2	55.8
CCCCCCCCCCCCOP(=O)(O)OP(=O)(O)OCC1OC(n2cc(C)c(=O)[nH]c2=O)CC1O (stereo unspecified)	> 100
O=C1c2cc([N+](=O)[O-])sc2C(=O)c2c([N+](=O)[O-])csc21	3.77
C[C@H](CCC(=O)NCC(=O)O)[C@H]1CC[C@H]2[C@@H]3[C@H](O)C[C@@H]4C[C@H](O)CC[C@]4(C)[C@H]3CC[C@]12C	> 100
CCOc1cc2c(cc1O)C(N)C[C@@H]1[C@@H]2CC[C@]2(C)[C@@H](O)CC[C@@H]12 (stereo partly specified)	> 100
CC(C)C(NC(=O)C(Cc1ccccc1)NC(=O)[C@H]1CCC[C@H]1NC(=O)C(Cc1ccc(OC(C)(C)C)cc1)NC(=O)OC(C)(C)C)C(N)=O (stereo partly specified)	41.6
Cc1ccc(NC(=O)CC(=O)n2nc(C)c(N=Nc3cccc(C)c3)c2C)cc1	> 100
N#C/C(=C\c1ccc2[nH]ccc2c1)C(=O)c1ccc(O)c(O)c1	> 100
Cc1ccc2c(c1C)C(=O)/C(=C/c1cccc(C)c1C(=O)O)C2	> 100
O=C1N(c2ccccc2)C(=S)/C(=C/c2ccc(Cl)cc2)N1c1ccc(Cl)cc1	> 100
O=C1C=C(N2CCN(CCOCCO)CC2)C(=O)c2c(O)ccc(O)c21	18.5
CC/C(N)=N\NC(=O)OC(C)(C)C	> 100
CC(=O)NC1C(OCc2ccccc2)OC(CO)C(O)C1OCC(=O)N[C@@H](C)C(=O)N[C@H](CCC(=O)NCCCNc1ccc([N+](=O)[O-])c2[nH]c3ccccc3c(=O)c12)C(N)=O (stereo partly specified)	> 100
CN(C)CCCNC(=O)c1cn2c(ccc3sc4ccccc4c(=O)c32)n1	38.4
O=P(O)(O)CN1CCNCCN(CP(=O)(O)O)CC1	> 100
c1cc2c(cc1C1=NCCN1)c1cc(C3=NCCN3)ccc1n2CC1CCCCC1	34.6
C=C1CC2[C@H](C)C(=O)CCC2(C)C2=C1C1CCC(C(C)CCC(=C)C(C)C(=O)O)C1(C)CC2=O (stereo partly specified)	> 100
CC(C)NC(=O)OCc1c(COC(=O)NC(C)C)c(-c2cc[n+](COC(=O)C3CCCCC3)cc2)n2c1CCC2	> 100

These compounds were tested on MDA-N (assay: NCI anticancer screen, dose series, 48 h).

Structure (SMILES)	TGI [µM]
CCNC(=S)N/N=C(\C)c1cccc(C)n1	> 100
CN1CCN([C@H]2C[C@H]3[C@@H]4CC=C5C[C@@H](O)CC[C@]5(C)[C@H]4CC[C@]3(C)[C@H]2O)CC1	34.6
CC1C2(C)OCC(C#N)(C(=N)O2)C1(C#N)C#N (stereo unspecified)	41.7
C=CC[C@H](N=C(SC)SC)C(=O)N1C(=O)N(C)[C@@H](C)[C@H]1c1ccccc1	> 100
CC(=O)c1sc2[n+](c1C)C(=O)/C(=C\c1ccccc1Cl)S2	44
CCCCCCCCCCCCOP(=O)(O)OP(=O)(O)OCC1OC(n2cc(C)c(=O)[nH]c2=O)CC1O (stereo unspecified)	> 100
O=C1c2cc([N+](=O)[O-])sc2C(=O)c2c([N+](=O)[O-])csc21	0.363
C[C@H](CCC(=O)NCC(=O)O)[C@H]1CC[C@H]2[C@@H]3[C@H](O)C[C@@H]4C[C@H](O)CC[C@]4(C)[C@H]3CC[C@]12C	> 100
CCOc1cc2c(cc1O)C(N)C[C@@H]1[C@@H]2CC[C@]2(C)[C@@H](O)CC[C@@H]12 (stereo partly specified)	> 100
CC(C)C(NC(=O)C(Cc1ccccc1)NC(=O)[C@H]1CCC[C@H]1NC(=O)C(Cc1ccc(OC(C)(C)C)cc1)NC(=O)OC(C)(C)C)C(N)=O (stereo partly specified)	35
Cc1ccc(NC(=O)CC(=O)n2nc(C)c(N=Nc3cccc(C)c3)c2C)cc1	> 100
N#C/C(=C\c1ccc2[nH]ccc2c1)C(=O)c1ccc(O)c(O)c1	> 100
O=[N+]([O-])/C(C(Cl)=C(Cl)Cl)=C(/Nc1ccccc1)Sc1ccccc1	56.3
Cc1ccc2c(c1C)C(=O)/C(=C/c1cccc(C)c1C(=O)O)C2	> 100
O=C1N(c2ccccc2)C(=S)/C(=C/c2ccc(Cl)cc2)N1c1ccc(Cl)cc1	> 100
